Reference: patent US20260325533A1, “CDK INHIBITOR COMPOUNDS” (ALEKSIA THERAPEUTICS, INC., priority 2023, published 2026)
Like-named read-outs stand apart in the source and are kept apart here. Blank lines part the entries; values can stand above or below the molecule they belong to.

Tests used:
Type in all cases: biochemical
CDK1/CCNB1 = CDK1/CCNB1 (Homo sapiens, UniProt P06493); assay: CDK1 homogeneous time-resolved fluorescence (HTRF) kinase assay; conditions: CDK1/CCNB
Method in brief: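 HTRF assay with 0.5 nM CDK1/CCNB1, 1 mM ATP, 50 nM ULight-eIF4E-BP1 (Thr37/46) peptide; compound preincubated 20 min, reaction 60 min at 23 °C, EDTA stop, Eu-anti-phospho antibody detection. 11-point half-log titration from 10 μM, 1% DMSO; IC50 from 665 nm or 665/615 signal.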

CDK2/CCNE1 = CDK2/CCNE1 (Homo sapiens, UniProt P24941); assay: CDK2 homogeneous time-resolved fluorescence (HTRF) kinase assay; conditions: CDK2/CCNE
Method in brief: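 Compounds were titrated 11-point, half-log from typically 10 μM against 3 nM CDK2/cyclin E1 at 1 mM ATP, with a 20 min enzyme preincubation. Phosphorylation of 50 nM ULight-4E-BP1 peptide over 60 min at 23 °C was detected by europium anti-phospho antibody TR-FRET.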

CDK6/CCND1 = CDK6/CCND1 (Homo sapiens, UniProt Q00534); assay: CDK6 homogeneous time-resolved fluorescence (HTRF) kinase assay; conditions: CDK6/CCND, 1 mM ATP
Method in brief: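 Enzyme pre-incubated 20 min at 23 °C with compound, then reacted 60 min at 23 °C with 1 mM ATP and 50 nM ULight-4E-BP1 (Thr37/46) peptide; 1 nM enzyme, 1% DMSO. EDTA-stopped, Eu-anti-phospho antibody TR-FRET read (665 nm or 665/615 ratio); 11-point half-log titration from 10 μM gave IC50.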

CDK4/CCND3 = CDK4/CCND3 (Homo sapiens, UniProt P11802); assay: CDK4 homogeneous time-resolved fluorescence (HTRF) kinase assay; conditions: CDK4/CCND
Method in brief: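 CDK4/CCND3 at 1.5 nM was preincubated with compound for 20 min at 23 °C, then reacted for 60 min with 1 mM ATP and 50 nM ULight-4E-BP1 (Thr37/46) peptide. The reaction was stopped with EDTA, and phosphorylation was read by HTRF with a Eu-anti-phospho antibody. IC50 values came from 11-point half-log titrations, typically from 10 μM.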

[1] = >250 nM, read-out: CDK1/CCNB IC50 >250 nM
[2] = 25-250 nM, read-out: CDK2/CCNE IC50, 25-250 nM
[3] = >250 nM, read-out: CDK6/CCND IC50, >250 nM
[4] = >250 nM, read-out: CDK4/CCND IC50, >250 nM
[5] = <25 nM, read-out: CDK2/CCNE IC50, <25 nM
[6] = 25-250 nM, read-out: CDK6/CCND IC50, 25-250 nM
[7] = 25-250 nM, read-out: CDK4/CCND IC50, 25-250 nM

Sequence of CDK4/CCND3 (P11802 whole entry): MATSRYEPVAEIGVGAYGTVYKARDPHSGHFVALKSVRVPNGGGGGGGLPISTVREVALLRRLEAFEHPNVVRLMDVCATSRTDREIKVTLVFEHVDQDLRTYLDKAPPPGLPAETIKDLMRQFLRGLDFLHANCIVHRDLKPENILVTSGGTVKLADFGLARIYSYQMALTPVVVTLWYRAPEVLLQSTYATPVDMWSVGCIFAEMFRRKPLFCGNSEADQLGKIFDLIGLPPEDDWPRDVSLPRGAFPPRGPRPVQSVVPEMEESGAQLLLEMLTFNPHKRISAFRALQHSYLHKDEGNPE
Sequence of CDK4/CCND3 (P30281 whole entry partner): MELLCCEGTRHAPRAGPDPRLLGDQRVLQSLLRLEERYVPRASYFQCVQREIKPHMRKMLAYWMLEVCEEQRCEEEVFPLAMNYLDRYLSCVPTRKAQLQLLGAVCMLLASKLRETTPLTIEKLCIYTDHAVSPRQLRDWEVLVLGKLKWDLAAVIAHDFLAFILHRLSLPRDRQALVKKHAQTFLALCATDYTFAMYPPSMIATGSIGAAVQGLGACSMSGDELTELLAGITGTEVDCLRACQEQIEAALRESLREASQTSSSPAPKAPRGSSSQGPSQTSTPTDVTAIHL
Sequence of CDK1/CCNB1 (P06493 whole entry): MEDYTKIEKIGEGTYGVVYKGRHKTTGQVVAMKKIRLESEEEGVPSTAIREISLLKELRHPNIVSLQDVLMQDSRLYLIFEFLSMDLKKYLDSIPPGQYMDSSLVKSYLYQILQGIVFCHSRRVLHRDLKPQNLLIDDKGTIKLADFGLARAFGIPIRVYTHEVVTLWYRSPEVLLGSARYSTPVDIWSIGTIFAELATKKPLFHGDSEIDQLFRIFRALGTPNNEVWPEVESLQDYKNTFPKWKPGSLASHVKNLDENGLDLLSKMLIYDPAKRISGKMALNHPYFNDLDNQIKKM
Sequence of CDK1/CCNB1 (P14635 whole entry partner): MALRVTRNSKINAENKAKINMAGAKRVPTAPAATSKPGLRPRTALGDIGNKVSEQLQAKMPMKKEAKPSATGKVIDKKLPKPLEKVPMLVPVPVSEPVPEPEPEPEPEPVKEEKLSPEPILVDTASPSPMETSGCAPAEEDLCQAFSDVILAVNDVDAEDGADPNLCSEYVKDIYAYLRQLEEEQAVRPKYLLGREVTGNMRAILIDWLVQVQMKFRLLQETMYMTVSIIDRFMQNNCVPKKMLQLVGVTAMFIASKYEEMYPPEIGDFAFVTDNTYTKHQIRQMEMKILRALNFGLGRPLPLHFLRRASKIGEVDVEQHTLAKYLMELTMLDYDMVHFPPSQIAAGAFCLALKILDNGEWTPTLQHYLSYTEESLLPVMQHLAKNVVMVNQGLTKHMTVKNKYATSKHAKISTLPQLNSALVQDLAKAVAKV
Sequence of CDK6/CCND1 (Q00534 whole entry): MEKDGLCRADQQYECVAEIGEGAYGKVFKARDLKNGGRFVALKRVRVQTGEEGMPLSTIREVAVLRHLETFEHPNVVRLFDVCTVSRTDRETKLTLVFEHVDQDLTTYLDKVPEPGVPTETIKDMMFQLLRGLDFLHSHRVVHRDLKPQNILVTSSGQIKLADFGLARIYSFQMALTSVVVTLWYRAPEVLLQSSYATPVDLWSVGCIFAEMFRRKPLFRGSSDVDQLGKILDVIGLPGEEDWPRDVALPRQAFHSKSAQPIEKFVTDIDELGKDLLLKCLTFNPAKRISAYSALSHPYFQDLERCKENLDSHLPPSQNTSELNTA
Sequence of CDK6/CCND1 (P24385 whole entry partner): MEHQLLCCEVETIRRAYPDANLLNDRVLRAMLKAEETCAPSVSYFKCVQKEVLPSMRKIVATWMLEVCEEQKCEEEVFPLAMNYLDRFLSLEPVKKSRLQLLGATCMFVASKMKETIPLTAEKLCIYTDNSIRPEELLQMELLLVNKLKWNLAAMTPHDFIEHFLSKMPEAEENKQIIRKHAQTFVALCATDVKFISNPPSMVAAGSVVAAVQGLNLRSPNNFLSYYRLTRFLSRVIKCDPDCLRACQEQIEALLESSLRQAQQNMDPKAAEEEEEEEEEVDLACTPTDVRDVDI

SMILES: Cc1c(-c2nccc3cnc(Nc4ccc(S(=O)(=O)N(C)c5ncccn5)cc4)cc23)ccc2c1cnn2CC(C)(C)O [Ex 734, 4-((5-(1-(2-hydroxy-2-methylpropyl)-4-methyl-1H-indazol-5-yl)-2,6-naphthyridin-3-yl)amino)-N-methyl-N-(pyrimidin-2-yl)benzenesulfonamide]
IC50 (CDK1/CCNB1; 25-250 nM, read-out: CDK1/CCNB IC50, 25-250 nM): 25 to 250 nM | IC50 (CDK2/CCNE1; [5]): < 25 nM | IC50 (CDK6/CCND1; [6]): 25 to 250 nM | IC50 (CDK4/CCND3; [7]): 25 to 250 nM

SMILES: Cc1c(-c2nccc3cnc(Nc4ccc(S(=O)(=O)Nc5cc(N6CCOCC6)ccn5)cc4)cc23)ccc2c1cnn2CC(O)(C(F)(F)F)C(F)(F)F [Ex 741, 4-((5-(4-methyl-1-(3,3,3-trifluoro-2-hydroxy-2-(trifluoromethyl)propyl)-1H-indazol-5-yl)-2,6-naphthyridin-3-yl)amino)-N-(4-morpholinopyridin-2-yl)benzenesulfonamide]
IC50 (CDK1/CCNB1; [1]): > 250 nM | IC50 (CDK2/CCNE1; [5]): < 25 nM | IC50 (CDK6/CCND1; [3]): > 250 nM | IC50 (CDK4/CCND3; [4]): > 250 nM

SMILES: COc1cc(NS(=O)(=O)c2ccc(Nc3cc4c(-c5ccc6c(cnn6CC(O)(C(F)(F)F)C(F)(F)F)c5C)nccc4cn3)cc2)nc(OC)c1 [Ex 742, N-(4,6-dimethoxypyridin-2-yl)-4-((5-(4-methyl-1-(3,3,3-trifluoro-2-hydroxy-2-(trifluoromethyl)propyl)-1H-indazol-5-yl)-2,6-naphthyridin-3-yl)amino)benzenesulfonamide]
IC50 (CDK1/CCNB1; [1]): > 250 nM | IC50 (CDK2/CCNE1; [2]): 25 to 250 nM | IC50 (CDK6/CCND1; [3]): > 250 nM | IC50 (CDK4/CCND3; [4]): > 250 nM

SMILES: COc1cnc(NS(=O)(=O)c2ccc(Nc3cc4c(-c5ccc6c(cnn6CC(O)(C(F)(F)F)C(F)(F)F)c5C)nccc4cn3)cc2)nc1 [Ex 743, N-(5-methoxypyrimidin-2-yl)-4-((5-(4-methyl-1-(3,3,3-trifluoro-2-hydroxy-2-(trifluoromethyl)propyl)-1H-indazol-5-yl)-2,6-naphthyridin-3-yl)amino)benzenesulfonamide]
IC50 (CDK1/CCNB1; [1]): > 250 nM | IC50 (CDK2/CCNE1; [5]): < 25 nM | IC50 (CDK6/CCND1; [3]): > 250 nM | IC50 (CDK4/CCND3; [4]): > 250 nM

SMILES: Cc1c(-c2nccc3cnc(Nc4ccc(S(=O)(=O)Nc5nccc(C(F)(F)F)n5)cc4)cc23)ccc2c1cnn2CC(O)(C(F)(F)F)C(F)(F)F [Ex 744, 4-((5-(4-methyl-1-(3,3,3-trifluoro-2-hydroxy-2-(trifluoromethyl)propyl)-1H-indazol-5-yl)-2,6-naphthyridin-3-yl)amino)-N-(4-(trifluoromethyl)pyrimidin-2-yl)benzenesulfonamide]
IC50 (CDK1/CCNB1; [1]): > 250 nM | IC50 (CDK2/CCNE1; [2]): 25 to 250 nM | IC50 (CDK6/CCND1; [3]): > 250 nM | IC50 (CDK4/CCND3; [4]): > 250 nM

SMILES: COc1cc(OC)nc(NS(=O)(=O)c2ccc(Nc3cc4c(-c5ccc6c(cnn6CC(O)(C(F)(F)F)C(F)(F)F)c5C)nccc4cn3)cc2)n1 [Ex 745, N-(4,6-dimethoxypyrimidin-2-yl)-4-((5-(4-methyl-1-(3,3,3-trifluoro-2-hydroxy-2-(trifluoromethyl)propyl)-1H-indazol-5-yl)-2,6-naphthyridin-3-yl)amino)benzenesulfonamide]
IC50 (CDK1/CCNB1; [1]): > 250 nM | IC50 (CDK2/CCNE1; [2]): 25 to 250 nM | IC50 (CDK6/CCND1; [3]): > 250 nM | IC50 (CDK4/CCND3; [4]): > 250 nM

SMILES: Cc1c(-c2nccc3cnc(Nc4ccc(S(=O)(=O)N[C@@H](C)CCO)cc4)cc23)ccc2c1cnn2CC(C)(C)O [Ex 746, (S)-4-((5-(1-(2-hydroxy-2-methylpropyl)-4-methyl-1H-indazol-5-yl)-2,6-naphthyridin-3-yl)amino)-N-(4-hydroxybutan-2-yl)benzenesulfonamide]
IC50 (CDK1/CCNB1; [1]): > 250 nM | IC50 (CDK2/CCNE1; [5]): < 25 nM | IC50 (CDK6/CCND1; [6]): 25 to 250 nM | IC50 (CDK4/CCND3; [7]): 25 to 250 nM

SMILES: Cc1c(-c2nccc3cnc(Nc4ccc(S(=O)(=O)N[C@H](C)CCO)cc4)cc23)ccc2c1cnn2CC(C)(C)O [Ex 747, (R)-4-((5-(1-(2-hydroxy-2-methylpropyl)-4-methyl-1H-indazol-5-yl)-2,6-naphthyridin-3-yl)amino)-N-(4-hydroxybutan-2-yl)benzenesulfonamide]
IC50 (CDK1/CCNB1; [1]): > 250 nM | IC50 (CDK2/CCNE1; [5]): < 25 nM | IC50 (CDK6/CCND1; [6]): 25 to 250 nM | IC50 (CDK4/CCND3; [7]): 25 to 250 nM

Further lines, results first:

IC50 (CDK1/CCNB1; [1]): > 250 nM | IC50 (CDK2/CCNE1; [2]): 25 to 250 nM | IC50 (CDK6/CCND1; [3]): > 250 nM | IC50 (CDK4/CCND3; [4]): > 250 nM
SMILES: CCN(c1ncccn1)S(=O)(=O)c1ccc(Nc2cc3c(-c4ccc5c(cnn5CC(O)(C(F)(F)F)C(F)(F)F)c4C)nccc3cn2)cc1 [Ex 731, N-ethyl-4-((5-(4-methyl-1-(3,3,3-trifluoro-2-hydroxy-2-(trifluoromethyl)propyl)-1H-indazol-5-yl)-2,6-naphthyridin-3-yl)amino)-N-(pyrimidin-2-yl)benzenesulfonamide]

IC50 (CDK1/CCNB1; [1]): > 250 nM | IC50 (CDK2/CCNE1; [2]): 25 to 250 nM | IC50 (CDK6/CCND1; [3]): > 250 nM | IC50 (CDK4/CCND3; [4]): > 250 nM
SMILES: COc1cccc(NS(=O)(=O)c2ccc(Nc3cc4c(-c5ccc6c(cnn6CC(O)(C(F)(F)F)C(F)(F)F)c5C)nccc4cn3)cc2)n1 [Ex 735, N-(6-methoxypyridin-2-yl)-4-((5-(4-methyl-1-(3,3,3-trifluoro-2-hydroxy-2-(trifluoromethyl)propyl)-1H-indazol-5-yl)-2,6-naphthyridin-3-yl)amino)benzenesulfonamide]

IC50 (CDK1/CCNB1; [1]): > 250 nM | IC50 (CDK2/CCNE1; [5]): < 25 nM | IC50 (CDK6/CCND1; [3]): > 250 nM | IC50 (CDK4/CCND3; [4]): > 250 nM
SMILES: Cc1cc(C)nc(NS(=O)(=O)c2ccc(Nc3cc4c(-c5ccc6c(cnn6CC(O)(C(F)(F)F)C(F)(F)F)c5C)nccc4cn3)cc2)n1 [Ex 736, N-(4,6-dimethylpyrimidin-2-yl)-4-((5-(4-methyl-1-(3,3,3-trifluoro-2-hydroxy-2-(trifluoromethyl)propyl)-1H-indazol-5-yl)-2,6-naphthyridin-3-yl)amino)benzenesulfonamide]

IC50 (CDK1/CCNB1; [1]): > 250 nM | IC50 (CDK2/CCNE1; [5]): < 25 nM | IC50 (CDK6/CCND1; [3]): > 250 nM | IC50 (CDK4/CCND3; [4]): > 250 nM
SMILES: COc1ccnc(NS(=O)(=O)c2ccc(Nc3cc4c(-c5ccc6c(cnn6CC(O)(C(F)(F)F)C(F)(F)F)c5C)nccc4cn3)cc2)n1 [Ex 737, N-(4-methoxypyrimidin-2-yl)-4-((5-(4-methyl-1-(3,3,3-trifluoro-2-hydroxy-2-(trifluoromethyl)propyl)-1H-indazol-5-yl)-2,6-naphthyridin-3-yl)amino)benzenesulfonamide]

IC50 (CDK1/CCNB1; [1]): > 250 nM | IC50 (CDK2/CCNE1; [2]): 25 to 250 nM | IC50 (CDK6/CCND1; [3]): > 250 nM | IC50 (CDK4/CCND3; [4]): > 250 nM
SMILES: Cc1c(-c2nccc3cnc(Nc4ccc(S(=O)(=O)Nc5cccc(N6CCOCC6)c5)cc4)cc23)ccc2c1cnn2CC(O)(C(F)(F)F)C(F)(F)F [Ex 738, 4-((5-(4-methyl-1-(3,3,3-trifluoro-2-hydroxy-2-(trifluoromethyl)propyl)-1H-indazol-5-yl)-2,6-naphthyridin-3-yl)amino)-N-(3-morpholinophenyl)benzenesulfonamide]

IC50 (CDK1/CCNB1; [1]): > 250 nM | IC50 (CDK2/CCNE1; [2]): 25 to 250 nM | IC50 (CDK6/CCND1; [3]): > 250 nM | IC50 (CDK4/CCND3; [4]): > 250 nM
SMILES: COc1cc(NS(=O)(=O)c2ccc(Nc3cc4c(-c5ccc6c(cnn6CC(O)(C(F)(F)F)C(F)(F)F)c5C)nccc4cn3)cc2)cc(OC)c1 [Ex 739, N-(3,5-dimethoxyphenyl)-4-((5-(4-methyl-1-(3,3,3-trifluoro-2-hydroxy-2-(trifluoromethyl)propyl)-1H-indazol-5-yl)-2,6-naphthyridin-3-yl)amino)benzenesulfonamide]

IC50 (CDK1/CCNB1; [1]): > 250 nM | IC50 (CDK2/CCNE1; >250 nM, read-out: CDK2/CCNE IC50, >250 nM): > 250 nM | IC50 (CDK6/CCND1; [3]): > 250 nM | IC50 (CDK4/CCND3; [4]): > 250 nM
SMILES: Cc1c(-c2nccc3cnc(Nc4ccc(S(=O)(=O)Nc5cc(C(F)(F)F)ccn5)cc4)cc23)ccc2c1cnn2CC(O)(C(F)(F)F)C(F)(F)F [Ex 740, 4-((5-(4-methyl-1-(3,3,3-trifluoro-2-hydroxy-2-(trifluoromethyl)propyl)-1H-indazol-5-yl)-2,6-naphthyridin-3-yl)amino)-N-(4-(trifluoromethyl)pyridin-2-yl)benzenesulfonamide]
